Assay results published in patent US20050113450A1, “Antibacterial agents” (priority 2002, published 2005).

Tested on: SA 9218
Assay: MIC by standard agar dilution method
Format: cell-based
Conditions: Mueller Hinton agar, 10^4 to 10^5 cells per spot, incubated overnight at 35° C., lowest concentration that inhibits visible growth
In short: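 Agar dilution: two-fold compound dilutions mixed into molten Mueller Hinton agar, spots of ~10^4–10^5 cells from 0.5 McFarland suspension diluted 1:20 in TSB. Incubated overnight at 35 °C; MIC is lowest concentration inhibiting visible growth.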

MIC, 2 µg/mL:
CC(C)CN1C(=O)c2ccc(C(=O)Nc3ccc(Br)cc3C(=O)O)cc2C1=O
O=C(Nc1ccc(-c2cccs2)cc1C(=O)O)c1cccc(S(=O)(=O)N2CCc3cc(Cl)ccc32)c1 [PHA-556657]
COc1ccc(C(=O)Nc2ccc(Br)cc2C(=O)O)cc1S(=O)(=O)NC1Cc2ccccc2C1
O=C(Nc1ccc(Br)cc1C(=O)O)c1cc(S(=O)(=O)N2CCc3ccccc32)ccc1Br
CCSc1cccc(C(=O)Nc2ccc(Br)cc2C(=O)O)c1 [PHA-501748]

MIC, 1 µg/mL:
Cc1ccc(C(=O)Nc2ccc(Br)cc2C(=O)O)cc1S(=O)(=O)N1CCc2ccc(Cl)cc21
O=C(Nc1ccc(Br)cc1C(=O)O)c1ccc(C(=O)c2ccccc2)cc1 [PHA-520447]
O=C(Nc1ccc(Cl)cc1C(=O)O)c1cc(Br)cc(S(=O)(=O)N2CCOCC2)c1 [PHA-662250]
O=C(Nc1ccc(Br)cc1C(=O)O)c1ccc(S(=O)(=O)n2ccc3ccc(Cl)cc32)cc1 [PNU-290906]
CN(c1ccc(Cl)cc1)S(=O)(=O)c1cccc(C(=O)Nc2ccc(Cl)cc2C(=O)O)c1 [PHA-615551]

MIC, 16 µg/mL:
CC1CC(S(=O)(=O)c2cccc(C(=O)Nc3ccc(C#N)cc3C(=O)O)c2)CC(C)O1 (stereo not drawn)
COC(=O)c1cccc(C(=O)c2cccc(C(=O)Nc3ccc(Cl)cc3C(=O)O)c2)c1 [PHA-656886]
CCCNC(c1cccc(C(=O)Nc2ccc(Cl)cc2C(=O)O)c1)c1ccco1 (stereo not drawn)
CCCCN(CC)S(=O)(=O)c1ccc(C(=O)Nc2ccc(C#N)cc2C(=O)O)cc1 [PHA-571214]
O=C(Nc1ccc(Br)cc1C(=O)O)c1cccc(OCc2cccc(F)c2)c1
O=C(Nc1ccc(Cl)cc1C(=O)O)c1cccc(C(NC2CCc3ccccc32)c2ccccc2)c1 (stereo not drawn)
O=C(Nc1ccc(Br)cc1C(=O)O)c1cccc(S(=O)(=O)N2CCN(c3cccc(C(F)(F)F)c3)CC2)c1
COc1ccc(C(=O)Nc2ccc(C#N)cc2C(=O)O)cc1
Cc1ccc(C(=O)Nc2ccc(Br)cc2C(=O)O)cc1S(=O)(=O)N1CCN(c2cccc(C(F)(F)F)c2)CC1
O=C(Nc1ccc(Br)cc1C(=O)O)c1ccc(OCc2ccccc2)cc1
CN(c1ccc(Cl)cc1)S(=O)(=O)c1ccc(C(=O)Nc2ccc([N+](=O)[O-])cc2C(=O)O)cc1 [PNU-293032]

MIC, 8 µg/mL:
O=C(COc1ccc(Cl)cc1)c1cccc(C(=O)Nc2ccc(Cl)cc2C(=O)O)c1
C=CCN(C1CCCC1)S(=O)(=O)c1cccc(C(=O)Nc2ccc(C#N)cc2C(=O)O)c1 [PHA-656870]
N#Cc1cccc(C(=NO)c2ccc(C(=O)Nc3ccc(Cl)cc3C(=O)O)cc2)c1
O=C(Nc1ccc(Cl)cc1C(=O)O)c1cccc(I)c1
O=C(Nc1ccc(Cl)cc1C(=O)O)c1cccc(C(=O)C2CCCC2)c1
Cn1cccc1-c1ccc(NC(=O)c2cccc(S(=O)(=O)N3CCc4cc(Cl)ccc43)c2)c(C(=O)O)c1 [PHA-556658]
O=C(Nc1ccc(-c2cnccn2)cc1C(=O)O)c1cccc(S(=O)(=O)N2CCc3cc(Cl)ccc32)c1 [PHA-556661]
CCCNC(c1cccc(C#N)c1)c1cccc(C(=O)Nc2ccc(Cl)cc2C(=O)O)c1 (stereo not drawn)
N#Cc1ccc(NC(=O)c2cc(CCO)cc(S(=O)(=O)N3CCc4ccccc43)c2)c(C(=O)O)c1 [PHA-568425]
COc1ccc(C(=O)Nc2ccc(C#N)cc2C(=O)O)cc1F
O=C(Nc1ccc(Br)cc1C(=O)O)c1cccc(Cl)c1
CCCCCC(=O)c1ccc(NC(=O)c2ccc(S(=O)(=O)N3CCc4ccc(Cl)cc43)cc2)c(C(=O)O)c1
O=C(Nc1ccc(Br)cc1C(=O)O)c1cccc(Br)c1
COc1ncc(-c2ccc(NC(=O)c3cccc(S(=O)(=O)N4CCc5cc(Cl)ccc54)c3)c(C(=O)O)c2)c(OC)n1 [PHA-568906]
N#Cc1cc(C(=O)Nc2ccc(Br)cc2C(=O)O)cc(S(=O)(=O)N2CCc3ccccc32)c1 [PHA-530687]
CN(C)c1cccc(C(=O)Nc2ccc(C#N)cc2C(=O)O)c1

MIC, 32 µg/mL:
O=C(Nc1ccc(Br)cc1C(=O)O)c1cccc(OCn2nnc3ccccc32)c1
CN(C1CCCCC1)S(=O)(=O)c1ccc(C(=O)Nc2ccc(C#N)cc2C(=O)O)cc1 [PHA-571264]
CC(C)(C)c1ccc(-c2ccc(C(=O)Nc3ccc(C#N)cc3C(=O)O)cc2)cc1
O=C(Nc1ccc(Br)cc1C(=O)O)c1cccc(OCc2cccnc2)c1
O=C(Nc1ccc(I)cc1C(=O)O)c1ccc(S(=O)(=O)N2CC=CC2)cc1
O=C(Nc1ccc(Br)cc1C(=O)O)c1ccc(C(F)(F)F)cc1
CCOc1cc(C(=O)Nc2ccc(Br)cc2C(=O)O)cc(OCC)c1OCC

MIC, 0.5 µg/mL:
O=C(Nc1ccc(Br)cc1C(=O)O)c1ccc(S(=O)(=O)n2ccc3cc(F)ccc32)cc1 [PNU-291129]

MIC, 64 µg/mL:
Nc1ccc(CCNS(=O)(=O)c2ccc(C(=O)Nc3ccc(Br)cc3C(=O)O)cc2)cc1
N#Cc1ccc(NC(=O)c2cccc(F)c2)c(C(=O)O)c1
CS(=O)(=O)c1ccc(C(=O)Nc2ccc(Br)cc2C(=O)O)cc1
CC(C)(C)CCOc1ccc(C(=O)Nc2ccc(Br)cc2C(=O)O)cc1
CN(CC(O)c1ccccc1)S(=O)(=O)c1ccc(C(=O)Nc2ccc(C#N)cc2C(=O)O)cc1 (stereo not drawn) [PHA-656809]
Cc1ccc(F)cc1C(=O)Nc1ccc(Br)cc1C(=O)O
O=C(Nc1ccc(Br)cc1C(=O)O)c1ccc(S(=O)(=O)Nc2ccc(N3CCOCC3)cc2)cc1
CO/N=C/c1ccc(NC(=O)c2cccc(S(=O)(=O)N3CCc4cc(Cl)ccc43)c2)c(C(=O)O)c1 [PHA-682996]

MIC, 0.25 µg/mL:
O=C(Nc1ccc(Br)cc1C(=O)O)c1ccc(S(=O)(=O)n2ccc3ccc(F)cc32)cc1 [PNU-291011]
CN(c1ccc(Cl)cc1)S(=O)(=O)c1cc(Br)cc(C(=O)Nc2ccc(C#N)cc2C(=O)O)c1 [PHA-630966]
Cc1ccccc1Oc1cccc(C(=O)Nc2ccc(C#N)cc2C(=O)O)c1 [PHA-562733]

MIC, > 128 µg/mL:
CCOC(=O)C1CCC(Oc2ccc(C(=O)Nc3ccc(Br)cc3C(=O)O)cc2)CC1 (stereo not drawn)
CC(=O)c1ccc(CC(=O)c2ccc(S(=O)(=O)N3CCc4cc(Cl)ccc43)cc2)c(C(=O)O)c1 [PHA-708922]
O=C(Nc1cccc(C(=O)Nc2ccc(Br)cc2C(=O)O)c1)c1ccc(Cl)nc1 [PHA-713389]
O=C(Nc1ccc(-c2ccccc2)cc1C(=O)O)c1cccc(S(=O)(=O)N2CCOCC2)c1 [PHA-610942]

MIC, 128 µg/mL:
COc1ccc(C(=O)Nc2ccc(Br)cc2C(=O)O)cc1S(=O)(=O)NCCc1ccc(N)cc1
CCN(CC)c1ccc(NS(=O)(=O)c2cccc(C(=O)Nc3ccc(Br)cc3C(=O)O)c2)cc1
O=C(Nc1ccc(Br)cc1C(=O)O)c1ccccc1F
O=C(Nc1ccc(C#CCO)cc1C(=O)O)c1cccc(S(=O)(=O)N2CCc3ccccc32)c1 [PHA-687570]
O=C(Nc1ccc(Br)cc1C(=O)O)c1cccc([N+](=O)[O-])c1
CN(C)c1ccc(CNS(=O)(=O)c2ccc(C(=O)Nc3ccc(Br)cc3C(=O)O)cc2)cc1
CC(=O)Oc1cccc(C(=O)Nc2ccc(Br)cc2C(=O)O)c1
O=C(Nc1ccc(Br)cc1C(=O)O)c1cccc(OCC2CCCC2)c1

MIC, 4 µg/mL:
O=C(Nc1ccc(-c2ccccc2)cc1C(=O)O)c1cccc(S(=O)(=O)N2CCc3cc(Cl)ccc32)c1 [PHA-557035]
O=C(O)c1ccc(NS(=O)(=O)c2ccc(C(=O)Nc3ccc(Br)cc3C(=O)O)cc2)cc1 [PNU-276817]
N#Cc1ccc(C2CC2c2cccc(S(=O)(=O)N3CCc4cc(Cl)ccc43)c2)c(C(=O)O)c1 (stereo not drawn) [PHA-687511]
O=C(Nc1ccc(I)cc1C(=O)O)c1ccc(S(=O)(=O)N2CCc3ccc(Cl)cc32)cc1
O=C(Nc1ccc(Cl)cc1C(=O)O)c1cccc(C(NC2CCCC2)c2ccccc2)c1 (stereo not drawn)
N#Cc1ccc(NC(=O)c2cccc(CS(=O)(=O)N3CCCC3)c2)c(C(=O)O)c1 [PHA-630852, 5-cyano-2-({3-[(1-pyrrolidinylsulfonyl)methyl]benzoyl}amino)benzoic acid]
CSc1cccc(NC(=O)Nc2cccc(C(=O)Nc3ccc(Br)cc3C(=O)O)c2)c1 [PHA-708992]

SA 9218 MIC, 1 µg/mL:
O=C(Nc1ccc(Br)cc1C(=O)O)c1cccc(C(O)c2ccccc2)c1 (stereo not drawn) [PHA-521534]

SA 9218 MIC, >128 µg/mL:
O=C1CCC(COc2cccc(C(=O)Nc3ccc(Br)cc3C(=O)O)c2)N1 (stereo not drawn) [PHA-571280]

SA 9218 MIC, 0.25 µg/mL:
O=C(Nc1ccc(Br)cc1C(=O)O)c1cccc(C(=NO)c2ccccc2)c1 [PHA-524545]
